Experimental data: patent US20260232796A1, “COMBINATION THERAPIES WITH AN ANTI-FACTOR XI/FACTOR XIA ANTIBODY” (Anthos Therapeutics, Inc., priority 2022, published 2026)
Read-outs that look alike come from different tables or passages of the source.

Assays:
platelet aggregation [1] = assay: Impedance platelet aggregometry in whole blood spiked with aspirin +/- Antibody 1; format: cell-based; details: Homo sapiens, aspirin 1 mg/mL
Protocol: Two studies were conducted concurrently. Blood specimens were obtained in EDTA and citrate tubes (6 healthy donors for each study). In the first study, whole blood was spiked with vehicle, aspirin (1 mg/mL), or aspirin (1 mg/mL)+Antibody 1 (125, 250, and 500 nM). Platelet aggregation was measured by impedance platelet aggregometry following induction with collagen (3.2 μg/mL) or arachidonic acid (0.5 mM) (Multiplate® analyzer, COLtest and ASPItest reagents; Roche Diagnostics International Ltd, Rotkreuz, Switzerland).

platelet aggregation [2] = assay: Impedance platelet aggregometry in whole blood spiked with ticagrelor +/- Antibody 1; format: cell-based, human; details: ticagrelor 3 μM
Protocol: In the second study, whole blood was spiked with vehicle, ticagrelor (3 μM), or ticagrelor (3 μM)+Antibody 1 (125, 250, and 500 nM). Platelet aggregation was measured with the same methodology following induction by ADP (6.4 μM) or thrombin receptor activating peptide-6 (TRAP-6, 32 μM).

thrombin generation = assay: Thrombin generation in platelet-rich plasma, Calibrated Automated Thrombogram; format: biochemical, human; details: tissue factor reagent, abciximab 50 nM
Protocol: (§1) Whole blood was obtained in EDTA and citrate tubes (6 healthy donors). Specimens were spiked with vehicle, Antibody 1 (250, 500, or 1000 nM), or abciximab (50 nM). Platelet aggregation was recorded following induction using collagen (1 μg/mL) or TRAP-6 (8 μM) using a multiplate impedance aggregometer. The area under the curve (AUC) for platelet aggregation was determined in arbitrary aggregation*time (AU*min). Thrombin generation was also measured at the above Antibody 1 and abciximab concentrations in platelet-rich plasma using Thrombinoscope CAT (Calibrated Automated Thrombogram; Stago CH S.A. and tissue factor reagent (1 μM); fluorescence was measured by an automated plate reader fluorometer.

platelet aggregation [3] = assay: Whole blood platelet aggregation, multiplate impedance aggregometer (Example 1); format: cell-based, human; details: collagen 1 μg/mL, Antibody 1 250, 500 or 1000 nM, abciximab 50 nM, vs vehicle
Protocol: as §1

CC(=O)Oc1ccccc1C(=O)O [aspirin] showed an inhibition at 1000 µg/mL (platelet aggregation [1]; arachidonic acid 0.5 mM, p<0.05, read-out: inhibition of platelet aggregation induced with arachidonic acid) of 71% and an inhibition at 1000 µg/mL (platelet aggregation [1]; collagen 3.2 μg/mL, p<0.05, read-out: inhibition of platelet aggregation induced with collagen) of 60%.

In the case of CCCSc1nc(N[C@@H]2C[C@H]2c2ccc(F)c(F)c2)c2nnn([C@@H]3C[C@H](OCCO)[C@@H](O)[C@H]3O)c2n1 [ticagrelor], the inhibition at 3 µM (platelet aggregation [2]; Homo sapiens, Platelet, ADP 6.4 μM, p<0.05, read-out: inhibition of platelet aggregation induced with ADP) is reported as 54% and the “inhibition of platelet aggregation induced with TRAP-6” value (platelet aggregation [2]; TRAP-6 32 μM, p<0.05) is reported as 31%.

B1: abciximab (antibody, chains of the INN, looked up, V domains shown)
VH: EVQLQQSGTVLARPGASVKMSCEASGYTFTNYWMHWVKQRPGQGLEWIGAIYPGNSDTSYIQKFKGKAKLTAVTSTTSVYMELSSLTNEDSAVYYCTLYDGYYVFAYWGQGTLVTVSA
VL: EIVLTQSPVTLSVTPGDSVSLSCRASRDISNNLHWFQQTSHESPRLLIKYASQSMSGIPSRFSGSGSGTDFTLSINSVETEDFGMYFCQQTNSWPYTFGGGTKLEIK
modifications: Fab
For B1, the “effect on thrombin generation” value (thrombin generation) was “no effect” and the “platelet aggregation induced by collagen” value (platelet aggregation [3]) was “significant reductions”.
